Test results: ChEMBL document CHEMBL5678810
Activity calls are given as the source filed them. The calls are words filed in the database; no cut-off is given here.

Legend:
[1] = target: Megakaryocyte-associated tyrosine-protein kinase (Homo sapiens) (UniProt P42679); experiment: Inhibition of T7 bacteriophage fused human CTK at 10 uM by KINOMEscan analysis relative to control
[2] = target: Mitogen-activated protein kinase kinase kinase kinase 3 (Homo sapiens) (UniProt Q8IVH8); experiment: Inhibition of T7 bacteriophage fused human MAP4K3 at 10 uM by KINOMEscan analysis relative to control; values are per cent of control
[3] = target: Serine/threonine-protein kinase MRCK alpha (Homo sapiens) (UniProt Q5VT25); experiment: Inhibition of T7 bacteriophage fused human MRCKA at 10 uM by KINOMEscan analysis relative to control
[4] = target: Mitogen-activated protein kinase kinase kinase 9 (Homo sapiens) (UniProt P80192); experiment: Inhibition of T7 bacteriophage fused human MLK1 at 10 uM by KINOMEscan analysis relative to control; values are per cent of control
Sequence of Mitogen-activated protein kinase kinase kinase 9 (Homo sapiens) (P80192 whole entry, looked up, the tested form may be a part): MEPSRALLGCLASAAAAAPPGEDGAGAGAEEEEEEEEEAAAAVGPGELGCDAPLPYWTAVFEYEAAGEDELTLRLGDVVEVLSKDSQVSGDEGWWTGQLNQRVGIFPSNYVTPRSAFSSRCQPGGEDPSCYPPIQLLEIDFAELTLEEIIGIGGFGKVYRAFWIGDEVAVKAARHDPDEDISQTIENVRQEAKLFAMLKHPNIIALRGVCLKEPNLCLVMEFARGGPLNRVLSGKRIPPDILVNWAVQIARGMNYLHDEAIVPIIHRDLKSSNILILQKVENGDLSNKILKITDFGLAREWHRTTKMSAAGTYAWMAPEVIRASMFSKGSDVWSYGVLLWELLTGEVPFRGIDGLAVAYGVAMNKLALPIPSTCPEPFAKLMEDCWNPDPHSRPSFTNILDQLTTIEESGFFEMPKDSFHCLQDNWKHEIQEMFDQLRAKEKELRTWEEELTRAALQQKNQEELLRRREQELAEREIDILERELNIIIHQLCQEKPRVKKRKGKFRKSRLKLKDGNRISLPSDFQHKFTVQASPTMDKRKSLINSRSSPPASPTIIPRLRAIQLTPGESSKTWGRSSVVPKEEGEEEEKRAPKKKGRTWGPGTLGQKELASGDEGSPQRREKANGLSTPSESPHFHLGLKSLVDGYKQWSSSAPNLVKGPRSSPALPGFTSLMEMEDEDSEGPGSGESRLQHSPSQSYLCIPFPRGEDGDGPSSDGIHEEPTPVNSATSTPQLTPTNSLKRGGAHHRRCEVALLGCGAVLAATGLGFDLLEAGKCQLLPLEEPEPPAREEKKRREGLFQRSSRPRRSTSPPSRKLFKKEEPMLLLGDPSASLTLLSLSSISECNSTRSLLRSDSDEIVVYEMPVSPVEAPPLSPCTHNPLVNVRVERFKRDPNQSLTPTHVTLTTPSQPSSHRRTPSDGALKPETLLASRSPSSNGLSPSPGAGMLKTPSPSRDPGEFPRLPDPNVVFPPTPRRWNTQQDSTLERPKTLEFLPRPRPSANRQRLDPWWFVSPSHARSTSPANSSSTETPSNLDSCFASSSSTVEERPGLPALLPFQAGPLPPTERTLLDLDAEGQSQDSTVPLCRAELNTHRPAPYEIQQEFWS

[5] = target: Casein kinase II subunit alpha' (Homo sapiens) (UniProt P19784); experiment: Inhibition of T7 bacteriophage fused human CSNK2A2 at 10 uM by KINOMEscan analysis relative to control; values are per cent of control
[6] = target: Serine/threonine-protein kinase D3 (Homo sapiens) (UniProt O94806); experiment: Inhibition of T7 bacteriophage fused human PRKD3 at 10 uM by KINOMEscan analysis relative to control
[7] = target: Eukaryotic translation initiation factor 2-alpha kinase 1 (Homo sapiens) (UniProt Q9BQI3); experiment: Inhibition of T7 bacteriophage fused human EIF2AK1 at 10 uM by KINOMEscan analysis relative to control
[8] = tested on: Tyrosine-protein kinase ABL1 (Homo sapiens), P00519 [T315I]; experiment: Inhibition of T7 bacteriophage fused human nonphosphorylated ABL1 T315I mutant at 10 uM by KINOMEscan analysis relative to control
[9] = tested on: Tyrosine-protein kinase ABL1 (Homo sapiens), P00519 [M351T]; experiment: Inhibition of T7 bacteriophage fused human phosphorylated ABL1 M351T mutant at 10 uM by KINOMEscan analysis relative to control
[10] = target: Mitogen-activated protein kinase kinase kinase kinase 4 (Homo sapiens) (UniProt O95819); experiment: Inhibition of T7 bacteriophage fused human MAP4K4 at 10 uM by KINOMEscan analysis relative to control; values are per cent of control
[11] = target: Mitogen-activated protein kinase 10 (Homo sapiens) (UniProt P53779); experiment: Inhibition of T7 bacteriophage fused human JNK3 at 10 uM by KINOMEscan analysis relative to control; values are per cent of control
[12] = target: Casein kinase I isoform gamma-2 (Homo sapiens) (UniProt P78368); experiment: Inhibition of T7 bacteriophage fused human CSNK1G2 at 10 uM by KINOMEscan analysis relative to control
Sequence of Casein kinase I isoform gamma-2 (Homo sapiens) (P78368 whole entry, looked up, the tested form may be a part, canonical isoform): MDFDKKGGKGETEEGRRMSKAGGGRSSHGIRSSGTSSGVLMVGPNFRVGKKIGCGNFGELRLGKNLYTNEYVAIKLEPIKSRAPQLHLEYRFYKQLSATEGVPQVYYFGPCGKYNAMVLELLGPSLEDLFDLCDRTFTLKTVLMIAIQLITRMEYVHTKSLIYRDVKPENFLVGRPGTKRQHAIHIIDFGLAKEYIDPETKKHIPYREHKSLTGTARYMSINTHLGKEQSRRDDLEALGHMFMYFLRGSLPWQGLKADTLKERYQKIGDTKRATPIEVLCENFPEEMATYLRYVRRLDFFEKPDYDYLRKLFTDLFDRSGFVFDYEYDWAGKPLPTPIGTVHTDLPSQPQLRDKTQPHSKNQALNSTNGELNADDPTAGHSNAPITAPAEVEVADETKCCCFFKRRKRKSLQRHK

[13] = tested on: eIF-2-alpha kinase GCN2 (Homo sapiens), Q9P2K8 [S808G]; experiment: Inhibition of T7 bacteriophage fused human GCN2 S808G mutant Kinase domain-2 at 10 uM by KINOMEscan analysis relative to control
[14] = target: Serine/threonine-protein kinase RIO1 (Homo sapiens) (UniProt Q9BRS2); experiment: Inhibition of T7 bacteriophage fused human RIOK1 at 10 uM by KINOMEscan analysis relative to control
Sequence of Serine/threonine-protein kinase RIO1 (Homo sapiens) (Q9BRS2 whole entry, the tested form may be a part): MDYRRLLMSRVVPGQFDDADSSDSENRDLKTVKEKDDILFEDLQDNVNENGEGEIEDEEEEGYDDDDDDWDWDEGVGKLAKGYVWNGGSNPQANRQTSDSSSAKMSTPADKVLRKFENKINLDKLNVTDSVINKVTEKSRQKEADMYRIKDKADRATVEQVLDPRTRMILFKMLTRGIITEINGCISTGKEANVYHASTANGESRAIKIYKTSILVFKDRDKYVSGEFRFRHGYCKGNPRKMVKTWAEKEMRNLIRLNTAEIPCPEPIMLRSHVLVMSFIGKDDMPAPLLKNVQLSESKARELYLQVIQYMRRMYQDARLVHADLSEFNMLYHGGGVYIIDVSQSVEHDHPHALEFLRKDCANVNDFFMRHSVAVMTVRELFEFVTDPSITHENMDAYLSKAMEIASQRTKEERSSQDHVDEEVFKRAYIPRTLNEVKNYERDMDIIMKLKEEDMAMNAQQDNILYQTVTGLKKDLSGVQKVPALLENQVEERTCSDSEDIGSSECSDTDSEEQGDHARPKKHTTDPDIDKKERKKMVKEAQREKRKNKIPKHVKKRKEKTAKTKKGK

[15] = target: Serine/threonine-protein kinase 16 (Homo sapiens) (UniProt O75716); experiment: Inhibition of T7 bacteriophage fused human STK16 at 10 uM by KINOMEscan analysis relative to control
[16] = target: Ephrin type-A receptor 6 (Homo sapiens) (UniProt Q9UF33); experiment: Inhibition of T7 bacteriophage fused human EPHA6 at 10 uM by KINOMEscan analysis relative to control
[17] = target: Serine/threonine-protein kinase B-raf (Homo sapiens) (UniProt P15056); experiment: Inhibition of T7 bacteriophage fused human BRAF at 10 uM by KINOMEscan analysis relative to control
[18] = target: Serine/threonine-protein kinase PLK1 (Homo sapiens) (UniProt P53350); experiment: Inhibition of T7 bacteriophage fused human PLK1 at 10 uM by KINOMEscan analysis relative to control
[19] = target: Serine/threonine-protein kinase PAK 2 (Homo sapiens) (UniProt Q13177); experiment: Inhibition of T7 bacteriophage fused human PAK2 at 10 uM by KINOMEscan analysis relative to control
Sequence of Serine/threonine-protein kinase PAK 2 (Homo sapiens) (Q13177 whole entry, the tested form may be a part): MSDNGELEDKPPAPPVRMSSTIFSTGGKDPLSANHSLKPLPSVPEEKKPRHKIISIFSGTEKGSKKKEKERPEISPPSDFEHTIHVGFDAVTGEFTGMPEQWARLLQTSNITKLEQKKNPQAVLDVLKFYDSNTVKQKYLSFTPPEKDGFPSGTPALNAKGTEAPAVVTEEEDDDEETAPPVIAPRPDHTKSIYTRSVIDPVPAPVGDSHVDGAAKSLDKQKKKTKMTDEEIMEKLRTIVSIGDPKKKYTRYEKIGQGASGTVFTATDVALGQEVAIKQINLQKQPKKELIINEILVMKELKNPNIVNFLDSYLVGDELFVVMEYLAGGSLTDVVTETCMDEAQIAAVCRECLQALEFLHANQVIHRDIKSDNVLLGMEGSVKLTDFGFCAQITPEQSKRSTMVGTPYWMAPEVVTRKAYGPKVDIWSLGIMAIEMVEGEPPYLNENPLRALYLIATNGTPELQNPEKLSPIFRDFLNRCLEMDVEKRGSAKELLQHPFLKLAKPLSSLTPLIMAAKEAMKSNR

[20] = target: Mitogen-activated protein kinase kinase kinase 4 (Homo sapiens) (UniProt Q9Y6R4); experiment: Inhibition of T7 bacteriophage fused human MAP3K4 at 10 uM by KINOMEscan analysis relative to control
[21] = target: Tyrosine-protein kinase JAK1 (Homo sapiens) (UniProt P23458); experiment: Inhibition of T7 bacteriophage fused human JAK1JH2 pseudokinase domain at 10 uM by KINOMEscan analysis relative to control
Sequence of Tyrosine-protein kinase JAK1 (Homo sapiens) (P23458 whole entry, the tested form may be a part): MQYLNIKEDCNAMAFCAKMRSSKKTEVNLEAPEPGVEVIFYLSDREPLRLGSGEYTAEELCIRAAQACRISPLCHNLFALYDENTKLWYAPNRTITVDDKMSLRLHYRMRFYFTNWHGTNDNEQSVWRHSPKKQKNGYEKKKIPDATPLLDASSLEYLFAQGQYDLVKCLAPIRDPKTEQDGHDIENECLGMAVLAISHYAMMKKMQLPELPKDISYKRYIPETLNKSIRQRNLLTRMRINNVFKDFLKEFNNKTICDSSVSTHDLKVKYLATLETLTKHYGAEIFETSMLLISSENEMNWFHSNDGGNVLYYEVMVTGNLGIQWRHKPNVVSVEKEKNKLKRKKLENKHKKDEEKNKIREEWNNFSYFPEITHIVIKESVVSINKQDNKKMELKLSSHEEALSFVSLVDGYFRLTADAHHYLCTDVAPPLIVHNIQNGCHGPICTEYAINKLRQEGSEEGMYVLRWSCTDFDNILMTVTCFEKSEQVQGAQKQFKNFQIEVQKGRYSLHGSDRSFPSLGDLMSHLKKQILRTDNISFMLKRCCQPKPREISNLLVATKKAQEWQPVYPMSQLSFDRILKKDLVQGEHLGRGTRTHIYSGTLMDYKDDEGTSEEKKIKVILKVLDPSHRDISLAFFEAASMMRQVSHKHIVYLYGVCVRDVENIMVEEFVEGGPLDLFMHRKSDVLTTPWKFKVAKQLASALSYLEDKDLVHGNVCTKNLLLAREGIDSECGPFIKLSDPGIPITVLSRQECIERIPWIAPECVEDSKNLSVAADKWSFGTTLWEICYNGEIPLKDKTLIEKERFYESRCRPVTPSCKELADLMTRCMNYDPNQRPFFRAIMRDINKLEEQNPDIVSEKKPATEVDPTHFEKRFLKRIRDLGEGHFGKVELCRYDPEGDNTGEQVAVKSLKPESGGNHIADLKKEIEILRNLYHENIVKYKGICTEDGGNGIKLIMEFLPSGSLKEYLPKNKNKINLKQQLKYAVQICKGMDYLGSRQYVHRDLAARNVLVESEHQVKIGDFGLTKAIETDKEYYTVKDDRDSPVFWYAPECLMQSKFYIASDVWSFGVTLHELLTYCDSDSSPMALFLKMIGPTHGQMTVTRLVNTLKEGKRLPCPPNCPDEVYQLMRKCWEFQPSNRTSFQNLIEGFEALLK

[22] = target: Cytoplasmic tyrosine-protein kinase BMX (Homo sapiens) (UniProt P51813); experiment: Inhibition of T7 bacteriophage fused human BMX at 10 uM by KINOMEscan analysis relative to control
[23] = target: Serine/threonine-protein kinase RIO3 (Homo sapiens) (UniProt O14730); experiment: Inhibition of T7 bacteriophage fused human RIOK3 at 10 uM by KINOMEscan analysis relative to control
Sequence of Serine/threonine-protein kinase RIO3 (Homo sapiens) (O14730 whole entry, the tested form may be a part): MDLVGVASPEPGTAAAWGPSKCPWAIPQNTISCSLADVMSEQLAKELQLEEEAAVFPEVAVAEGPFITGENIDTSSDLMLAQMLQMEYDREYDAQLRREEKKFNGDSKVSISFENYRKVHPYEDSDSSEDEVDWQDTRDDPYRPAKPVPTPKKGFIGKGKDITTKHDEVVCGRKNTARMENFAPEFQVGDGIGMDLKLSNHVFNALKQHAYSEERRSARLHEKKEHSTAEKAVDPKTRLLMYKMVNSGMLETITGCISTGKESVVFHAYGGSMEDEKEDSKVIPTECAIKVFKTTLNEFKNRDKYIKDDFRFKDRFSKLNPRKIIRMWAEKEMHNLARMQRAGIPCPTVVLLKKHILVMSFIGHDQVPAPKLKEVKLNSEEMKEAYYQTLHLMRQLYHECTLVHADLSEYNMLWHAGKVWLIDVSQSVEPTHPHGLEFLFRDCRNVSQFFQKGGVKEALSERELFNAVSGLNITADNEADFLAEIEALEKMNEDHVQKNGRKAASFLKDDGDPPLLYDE

[24] = tested on: Tyrosine-protein kinase ABL1 (Homo sapiens), P00519 [F317L]; experiment: Inhibition of T7 bacteriophage fused human nonphosphorylated ABL1 F317L mutant at 10 uM by KINOMEscan analysis relative to control
[25] = tested on: Epidermal growth factor receptor (Homo sapiens), P00533 [UNDEFINED MUTATION]; experiment: Inhibition of T7 bacteriophage fused human EGFR L747/E749del/A750P mutant at 10 uM by KINOMEscan analysis relative to control; values are per cent of control
[26] = target: Leucine-rich repeat serine/threonine-protein kinase 2 (Homo sapiens) (UniProt Q5S007); experiment: Inhibition of wildtype GFP-tagged LRRK2 phosphorylation at Ser935 residue (unknown origin) transfected in HEK293 cells upto 3 uM incubated for 90 mins by immunoblot analysis; assay type: cell-based
[27] = target: 3-phosphoinositide-dependent protein kinase 1 (Homo sapiens) (UniProt O15530); experiment: Inhibition of PDK1 Lys1 labeling site in human PC-3 cell lysate at 10 uM by KiNativ profiling analysis relative to control
Sequence of 3-phosphoinositide-dependent protein kinase 1 (Homo sapiens) (O15530 whole entry, looked up): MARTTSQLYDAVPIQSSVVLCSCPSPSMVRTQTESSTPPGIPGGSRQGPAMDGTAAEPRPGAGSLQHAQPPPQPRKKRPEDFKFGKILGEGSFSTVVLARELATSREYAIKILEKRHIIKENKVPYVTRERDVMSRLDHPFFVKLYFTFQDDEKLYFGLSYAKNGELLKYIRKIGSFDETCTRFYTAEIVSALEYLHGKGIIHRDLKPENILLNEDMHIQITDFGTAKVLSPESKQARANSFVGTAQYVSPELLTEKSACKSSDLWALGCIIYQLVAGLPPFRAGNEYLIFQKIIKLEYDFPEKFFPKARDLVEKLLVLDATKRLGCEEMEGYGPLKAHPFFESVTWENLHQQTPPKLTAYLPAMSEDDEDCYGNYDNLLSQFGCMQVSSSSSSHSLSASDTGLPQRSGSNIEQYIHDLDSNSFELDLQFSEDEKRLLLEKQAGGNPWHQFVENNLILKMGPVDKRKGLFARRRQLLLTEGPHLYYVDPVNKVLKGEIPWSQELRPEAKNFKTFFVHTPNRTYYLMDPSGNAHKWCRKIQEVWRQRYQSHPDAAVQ

[28] = target: Serine/threonine-protein kinase TAO2 (Homo sapiens) (UniProt Q9UL54); experiment: Inhibition of TAO2 Lys2 labeling site in human PC-3 cell lysate at 10 uM by KiNativ profiling analysis relative to control; assay type: subcellular
[29] = target: Ribosomal protein S6 kinase alpha-1 (Homo sapiens) (UniProt Q15418); experiment: Inhibition of RSK1 domain1 Activation Loop labeling site in human HEL cell lysate at 10 uM by KiNativ profiling analysis relative to control; assay type: subcellular

Structure (SMILES): COc1cc(N2CCC(N3CCN(C)CC3)CC2)ccc1Nc1ncc2c(n1)N(C)c1ccccc1C(=O)N2C
- inhibition [1]: 100%
- residual activity [2]: 71%
- inhibition [3]: 100%
- residual activity [4]: 93%
- residual activity [5]: 93%
- inhibition [6]: 42%
- inhibition [7]: 100%
- inhibition [8]: 100%
- inhibition [9]: 94%
- residual activity [10]: 85%
- residual activity [11]: 77%
- inhibition [12]: 100%
- inhibition [13]: 95%
- inhibition [14]: 100%
- inhibition [15]: 62%
- inhibition [16]: 89%
- inhibition [17]: 81%
- inhibition [18]: 0.7%
- inhibition [19]: 65%
- inhibition [20]: 100%
- inhibition [21]: 92%
- inhibition [22]: 87%
- inhibition [23]: 85%
- inhibition [24]: 14%
- residual activity [25]: 78%

Structure (SMILES): CCOc1cc(C(=O)N2CCC(N3CCN(C)CC3)CC2)ccc1Nc1ncc2c(n1)N(C1CCCC1)c1ccccc1C(=O)N2C
- inhibition [26]: inactive
- inhibition [27]: 0%

Structure (SMILES): COc1cc(C(=O)N2CCC(N3CCN(C)CC3)CC2)ccc1Nc1ncc2c(n1)N(C1CCCC1)c1ccccc1C(=O)N2C
- inhibition [28]: 0.3%
- inhibition [29]: 0.2%
